Where “and” joins values, the source holds several entries; their conditions need not be identical. Equal values may be shown once. Read-outs that look alike come from different tables or passages of the source. Numbered stars: 1 amine (or outer) side, 2 acyl side, 3 side chain; on linkers, the order of the positions; unused ones are H or OH. Square brackets hold non-standard residues; d marks the D form. Peptide text beside a SMILES is read from it. * marks the point of attachment. C18 diacid = O=C(O)CCCCCCCCCCCCCCCCC(=O)*; γGlu = O=C(O)[C@H](CCC(=O)[*:2])N[*:1]; NMeL = CN[C@@H](CC(C)C)C(=O)O; hSer = N[C@@H](CCO)C(=O)O; Nle = CCCC[C@H](N)C(=O)O; AEEA = NCCOCCOCC(=O)O
What was measured:
Format in all cases: cell-based
hNK1R = biological target: T1, hNK1R (Homo sapiens, UniProt P25103); experiment: IP3 assay (inositol trisphosphate, 3H-myoinositol) in transiently transfected COS-7 cells; details: for EC50: 0.2% ovalbumin buffer
T1 construct: host or cells: COS-7
Summary of the method: (§1)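 COS-7 cells were transiently transfected with receptor plasmid and labelled with ³H-myo-inositol. Cells were lysed in formic acid, and ³H-inositol phosphates were captured on SPA YSI beads and counted.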

hNK2R [1] = biological target: T2, hNK2R (Homo sapiens, UniProt P21452); experiment: as above; details: COS-7 cells; for EC50: 0.2% ovalbumin buffer; for hNK2R, IP3 Efficacy: figure legends: percent of 10^-6 M NKA
T2 construct: host or cells: COS-7
T2 sequence (P21452 1-398): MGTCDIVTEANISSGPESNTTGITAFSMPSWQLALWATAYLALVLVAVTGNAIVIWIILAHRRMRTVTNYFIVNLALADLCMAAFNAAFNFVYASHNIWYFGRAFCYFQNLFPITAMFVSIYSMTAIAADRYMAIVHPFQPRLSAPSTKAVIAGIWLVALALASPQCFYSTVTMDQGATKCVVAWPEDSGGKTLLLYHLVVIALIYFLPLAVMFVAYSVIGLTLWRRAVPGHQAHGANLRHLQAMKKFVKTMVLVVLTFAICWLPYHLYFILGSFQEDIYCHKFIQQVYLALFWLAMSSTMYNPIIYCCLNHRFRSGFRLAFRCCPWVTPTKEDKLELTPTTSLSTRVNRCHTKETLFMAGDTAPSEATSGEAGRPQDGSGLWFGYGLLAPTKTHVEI
Summary of the method: as §1

hNK3R = biological target: T3, hNK3R (Homo sapiens, UniProt P29371); experiment: as above; details: for EC50: 0.2% ovalbumin buffer, read-out: hNK3, IP3 EC50
T3 construct: host or cells: COS-7
T3 sequence (P29371 1-465): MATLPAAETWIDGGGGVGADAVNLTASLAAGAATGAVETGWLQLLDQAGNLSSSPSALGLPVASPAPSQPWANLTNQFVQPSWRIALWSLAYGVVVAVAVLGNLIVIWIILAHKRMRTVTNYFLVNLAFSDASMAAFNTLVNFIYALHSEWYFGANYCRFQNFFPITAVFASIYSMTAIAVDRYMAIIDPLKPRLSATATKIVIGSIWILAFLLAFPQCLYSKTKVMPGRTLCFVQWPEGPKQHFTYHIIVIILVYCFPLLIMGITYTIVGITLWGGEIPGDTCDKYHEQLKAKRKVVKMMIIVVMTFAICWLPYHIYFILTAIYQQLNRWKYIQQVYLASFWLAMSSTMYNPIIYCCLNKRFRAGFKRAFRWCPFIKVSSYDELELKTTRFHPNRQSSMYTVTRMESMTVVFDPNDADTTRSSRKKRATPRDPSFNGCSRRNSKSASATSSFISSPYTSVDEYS
Summary of the method: as §1

hNK2R [2] = biological target: T2, hNK2R; experiment: Hithunter cAMP assay (Gs-coupling) in transfected COS-7 cells; details: COS-7 cells
[3] = COS-7 cells, figure legends: percent of 10^-6 M NKA

T1 sequence (P25103 whole entry): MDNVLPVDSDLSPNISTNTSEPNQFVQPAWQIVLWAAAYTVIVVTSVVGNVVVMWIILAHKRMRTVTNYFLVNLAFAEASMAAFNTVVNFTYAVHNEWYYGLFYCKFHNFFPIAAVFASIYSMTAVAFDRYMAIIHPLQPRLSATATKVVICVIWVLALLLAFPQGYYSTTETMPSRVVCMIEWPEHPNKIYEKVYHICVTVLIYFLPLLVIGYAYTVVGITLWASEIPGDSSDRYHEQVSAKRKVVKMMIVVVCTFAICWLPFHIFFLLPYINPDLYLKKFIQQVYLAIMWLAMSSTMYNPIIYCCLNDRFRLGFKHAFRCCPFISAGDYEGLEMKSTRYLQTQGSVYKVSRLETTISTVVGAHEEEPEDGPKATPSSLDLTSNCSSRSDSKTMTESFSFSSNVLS

Row | SMILES | EC50 (hNK1R; COS-7 cells) | hNK1R, IP3 Efficacy (hNK1R; [3]) | EC50 (hNK2R [1]) | hNK2R, IP3 Efficacy (hNK2R [1]) | hNK3, IP3 Efficacy (hNK3R) [%] | EC50 (hNK3R; COS-7 cells) | hNK3, IP3 Efficacy (hNK3R; [3]) | EC50 (hNK2R [2]) | hNK2R, cAMP Efficacy (hNK2R [2]) | hNK1R, IP3 Efficacy (hNK1R)
1 | CCCC[C@H](NC(=O)[C@H](CC(C)C)N(C)C(=O)CNC(=O)[C@@H](NC(=O)[C@H](Cc1ccccc1)NC(=O)[C@H](CCCCN)NC(=O)[C@H](CC(=O)O)NC(=O)COCCOCCNC(=O)COCCOCCNC(=O)CC[C@H](NC(=O)CCCCCCCCCCCCCCCCC(=O)O)C(=O)O)C(C)C)C(N)=O [compound 304, *Asp;Lys;Phe;Val;Gly;NmLeu;Nle;NH2] | 34 nM and 40 nM and 12 to 250 nM | 80% and 80-85% | 2.1 nM and 1 to 11 nM | 90% and 100% and 80-90% | 100 | 66 nM and 65 nM and 60 to 7000 nM | 65% and 60% and 85-100% | 2.3 nM | 100% | 
2 | CCCC[C@H](NC(=O)[C@H](CC(C)C)N(C)C(=O)CNC(=O)[C@@H](NC(=O)[C@H](Cc1ccc(O)cc1)NC(=O)[C@H](CCCCN)NC(=O)[C@H](CC(=O)O)NC(=O)COCCOCCNC(=O)COCCOCCNC(=O)CC[C@H](NC(=O)CCCCCCCCCCCCCCCCC(=O)O)C(=O)O)C(C)C)C(N)=O [compound 305, *Asp;Lys;Tyr;Val;Gly;NmLeu;Nle;NH2] ({C18 diacid-γGlu-AEEA-AEEA}-DKYVG[NMeL][Nle]-NH2) | 520 nM and 450 to 3500 nM | 30% and ~30% | 3.7 nM and 4 nM and 2.2 to 13 nM |  |  | ~730 nM and ~720 nM |  | 0.7 nM and ~0.8 nM | 50% and 70% | 17-50%
3 | COCC[C@H](NC(=O)[C@H](CC(C)C)N(C)C(=O)CNC(=O)[C@@H](NC(=O)[C@H](Cc1ccccc1)NC(=O)[C@H](CCCCN)NC(=O)[C@H](CC(=O)O)NC(=O)COCCOCCNC(=O)COCCOCCNC(=O)CC[C@H](NC(=O)CCCCCCCCCCCCCCCCC(=O)O)C(=O)O)[C@@H](C)O)C(N)=O [compound 383, *Asp;Lys;Phe;Thr;Gly;NmLeu;Metox;NH2] ({C18 diacid-γGlu-AEEA-AEEA}-DKFTG[NMeL][hSer](Me)-NH2) | 290 nM | 50% | 1.6 nM | 95% |  | 313 nM | 60% | ~11 nM | 89% | 
4 | COCC[C@H](NC(=O)[C@H](CC(C)C)N(C)C(=O)CNC(=O)[C@@H](NC(=O)[C@H](Cc1ccc(O)cc1)NC(=O)[C@H](CCCCN)NC(=O)[C@H](CC(=O)O)NC(=O)COCCOCCNC(=O)COCCOCCNC(=O)CC[C@H](NC(=O)CCCCCCCCCCCCCCCCC(=O)O)C(=O)O)C(C)C)C(N)=O [compound 344, *Asp;Lys;Tyr;Val;Gly;NmLeu;Metox;NH2] ({C18 diacid-γGlu-AEEA-AEEA}-DKYVG[NMeL][hSer](Me)-NH2) | ~160 nM | 30% and 50% and ~30% | 2.2 nM and 3.1 nM and 5 nM and 3.2 nM | 90% and 100% and 110% |  |  |  | 28 nM | 96% and 100% | 

Source: patent US20230406883A1, “COMPOUNDS AND THEIR USE IN TREATMENT OF TACHYKININ RECEPTOR MEDIATED DISORDERS” (Embark Biotech ApS, priority 2020, published 2023)
